In patent US20240226106A1, “INHIBITORS OF PLASMA KALLIKREIN” (SHIRE HUMAN GENETIC THERAPIES, INC., priority 2021, published 2024) one finds EC50 data, which are given here for 25 molecules.

Some results are limits rather than exact numbers.

Chain of human activated kallikrein enzyme (P03952 391-638 limits assumed): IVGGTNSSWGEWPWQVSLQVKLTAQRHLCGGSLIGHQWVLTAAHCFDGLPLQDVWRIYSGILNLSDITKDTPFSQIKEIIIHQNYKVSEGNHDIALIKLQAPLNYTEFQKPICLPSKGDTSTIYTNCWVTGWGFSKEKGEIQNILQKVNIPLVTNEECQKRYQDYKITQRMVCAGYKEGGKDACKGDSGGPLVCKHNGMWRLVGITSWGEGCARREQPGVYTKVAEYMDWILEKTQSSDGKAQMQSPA
Chain of human activated kallikrein enzyme (P03952 20-390 partner limits assumed): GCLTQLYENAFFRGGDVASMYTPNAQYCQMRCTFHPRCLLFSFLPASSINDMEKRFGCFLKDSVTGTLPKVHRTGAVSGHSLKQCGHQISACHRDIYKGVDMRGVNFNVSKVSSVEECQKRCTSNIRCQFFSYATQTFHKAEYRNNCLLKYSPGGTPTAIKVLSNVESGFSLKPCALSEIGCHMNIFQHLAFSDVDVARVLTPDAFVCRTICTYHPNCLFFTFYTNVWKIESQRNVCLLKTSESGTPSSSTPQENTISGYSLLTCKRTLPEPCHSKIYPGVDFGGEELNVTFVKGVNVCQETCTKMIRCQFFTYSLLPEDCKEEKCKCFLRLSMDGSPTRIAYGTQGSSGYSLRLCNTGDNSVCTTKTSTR

The assay has as its target human activated kallikrein enzyme (Homo sapiens, UniProt P03952). The experiment in a line: Inhibition of human activated plasma kallikrein, fluorogenic peptide substrate (PFR-AMC), 500 pM enzyme format. Format: biochemical. To be noted: 500 pM activated kallikrein, 30 min preincubation, 10 min reaction, room temperature, read-out: Primary Dose Response Assay: Average EC50. On the procedure: Compounds were evaluated for inhibition of the human activated kallikrein enzyme in two formats of an assay employing a fluorogenic peptide substrate. In one assay format, the concentrations of reagents were as follows: 20 mM Tris pH 7.5, 1 mM EDTA, 150 mM sodium chloride, 0.1% PEG-400, 0.1% Triton X-100, 500 pM activated kallikrein enzyme, […] Pro-Phe-Arg-7-amido-4-methylcoumarin (PFR-AMC) substrate. Prior to reaction initiation with substrate, enzyme and inhibitors were preincubated for 30 min at room temperature. After initiation with substrate, reactions were incubated for 10 min at room temperature and fluorescence emission at 460 nm from 380 nm excitation measured with a microplate reader. In another assay format, the concentrations of reagents were as follows: 20 mM Tris pH 7.5, 1 mM EDTA, 150 mM sodium chloride, 0.1% PEG-400, 0.1% Triton X-100, 5 pM activated kallikrein enzyme, 300 uM PFR-AMC substrate. Prior to reaction initiation with substrate, enzyme and inhibitors were preincubated for 30 min at room temperature. After initiation with substrate, reactions were incubated for 18 hr at room temperature and fluorescence emission at 460 nm from 380 nm excitation measured with a microplate reader.
For the molecule `O=C(Nc1cc(OCc2ccc(Cn3cccn3)cc2)cnn1)[C@H]1C[C@@H]1c1cncc(Cl)c1` (racemic) [Example 1, rac-(1S*,2S*)—N-(5-((4-((1H-pyrazol-1-yl)methyl)benzyl)oxy)pyridazin-3-yl)-2-(5-chloropyridin-3-yl)cyclopropane-1-carboxamide], the EC50 was above 500 nM.
Under `O=C(Nc1cc(OCc2csc(-c3ccccc3)n2)cnn1)[C@H]1C[C@@H]1c1cccc(Cl)c1` (racemic) [Example 2, rac-(1S*,2S*)-2-(3-chlorophenyl)-N-(5-((2-phenylthiazol-4-yl)methoxy)pyridazin-3-yl)cyclopropane-1-carboxamide] stands above 500 nM; under `O=C(Nc1cc(OCc2ccc(Cn3ccc(C4CC4)n3)cc2)cnn1)[C@H]1C[C@@H]1c1cccc(Cl)c1` (racemic) [Example 4, rac-(1S*,2S*)-2-(3-chlorophenyl)-N-(5-((4-((3-cyclopropyl-1H-pyrazol-1-yl)methyl)benzyl)oxy)pyridazin-3-yl)cyclopropane-1-carboxamide], above 500 nM; under `O=C(Nc1cc(OCc2ccc(Cn3cccn3)cc2)cnn1)[C@H]1C[C@@H]1c1cccnc1Cl` (racemic) [Example 5, rac-(1S*,2S*)—N-(5-((4-((1H-pyrazol-1-yl)methyl)benzyl)oxy)pyridazin-3-yl)-2-(2-chloropyridin-3-yl)cyclopropane-1-carboxamide], above 500 nM.
For the molecule `O=C(Nc1cc(OCc2ccc(Cn3cccn3)cc2)cnn1)[C@H]1C[C@@H]1c1cn[nH]c1` (racemic) [Example 6, rac-(1S*,2S*)—N-(5-((4-((1H-pyrazol-1-yl)methyl)benzyl)oxy)pyridazin-3-yl)-2-(1H-pyrazol-4-yl)cyclopropane-1-carboxamide], the EC50 is above 500 nM.
Turning to `Nc1ncccc1[C@H]1C[C@@H]1C(=O)Nc1cc(OCc2ccc(Cn3cccn3)cc2)cnn1` (racemic) [Example 8, rac-(1S*,2S*)—N-(5-((4-((1H-pyrazol-1-yl)methyl)benzyl)oxy)pyridazin-3-yl)-2-(2-aminopyridin-3-yl)cyclopropane-1-carboxamide], the EC50 lay within 25 to 500 nM.
`O=C(Nc1cn(Cc2ccc(Cn3cccn3)cc2)cn1)[C@H]1C[C@@H]1c1cccc(Cl)c1` (racemic) [Example 9, rac-(1S*,2S*)—N-(1-(4-((1H-pyrazol-1-yl)methyl)benzyl)-1H-imidazol-4-yl)-2-(3-chlorophenyl)cyclopropane-1-carboxamide]: the EC50 was above 500 nM.
Regarding `O=C(Nc1cnn(Cc2ccc(Cn3cccn3)cc2)c1)[C@H]1C[C@@H]1c1cccc(Cl)c1` (racemic) [Example 10, rac-(1S*,2S*)—N-(1-(4-((1H-pyrazol-1-yl)methyl)benzyl)-1H-pyrazol-4-yl)-2-(3-chlorophenyl)cyclopropane-1-carboxamide], the EC50 is above 500 nM.
In the case of `Cc1cnn(-c2cc(COc3cnnc(NC(=O)[C@H]4C[C@@H]4c4cccc(Cl)c4)c3)ccn2)c1` (racemic) [Example 11, rac-(1S*,2S*)-2-(3-chlorophenyl)-N-(5-((2-(4-methyl-1H-pyrazol-1-yl)pyridin-4-yl)methoxy)pyridazin-3-yl)cyclopropanecarboxamide], the EC50 is above 500 nM.
The value for `O=C(Nc1cc(OCc2ccc(-n3ccnc3)cc2)cnn1)[C@H]1C[C@@H]1c1cccc(Cl)c1` (racemic) [Example 12, rac-(1S*,2S*)—N-(5-((4-(1H-imidazol-1-yl)benzyl)oxy)pyridazin-3-yl)-2-(3-chlorophenyl)cyclopropane-1-carboxamide] was above 500 nM; that for `O=C(Nc1cc(OCc2ccc(-c3ncc[nH]3)cc2)cnn1)[C@H]1C[C@@H]1c1cccc(Cl)c1` (racemic) [Example 13, rac-(1S*,2S*)—N-(5-((4-(1H-imidazol-2-yl)benzyl)oxy)pyridazin-3-yl)-2-(3-chlorophenyl)cyclopropane-1-carboxamide] was above 500 nM; that for `O=C(Nc1cc(NCc2ccc(Cn3ccccc3=O)cc2)cnn1)[C@H]1C[C@@H]1c1cccc(Cl)c1` (racemic) [Example 14, rac-(1S*,2S*)-2-(3-chlorophenyl)-N-(5-((4-((2-oxopyridin-1 (2H)-yl)methyl)benzyl)amino)pyridazin-3-yl)cyclopropane-1-carboxamide] was below 2.5 nM.
Turning to `O=C(Nc1cc(NCc2ccc(Cn3cc(Cl)ccc3=O)cc2)cnn1)[C@H]1C[C@@H]1c1cccc(Cl)c1` (racemic) [Example 17, rac-(1S*,2S*)—N-(5-((4-((5-chloro-2-oxopyridin-1 (2H)-yl)methyl)benzyl)amino)pyridazin-3-yl)-2-(3-chlorophenyl)cyclopropane-1-carboxamide], the concentration for a half-maximal effect (EC50) lay in the range of 2.5 to 25 nM.
Under `O=C(Nc1cc(OCc2ccc(Cn3cccn3)cc2)cnn1)[C@H]1C[C@@H]1c1cccc(Cl)c1` (racemic) [Example 18, rac-(1S*,2S*)—N-(5-((4-((1H-pyrazol-1-yl)methyl)benzyl)oxy)pyridazin-3-yl)-2-(3-chlorophenyl)cyclopropane-1-carboxamide] stands 2.5 to 25 nM; under `O=C(Nc1cc(NCc2ccc(Cn3ccccc3=O)cc2)cnn1)[C@H]1C[C@H]1c1cccc(Cl)c1` (racemic) [Example 19, rac-(1R*,2S*)-2-(3-chlorophenyl)-N-(5-((4-((2-oxopyridin-1 (2H)-yl)methyl)benzyl)amino)pyridazin-3-yl)cyclopropane-1-carboxamide], above 500 nM; under `O=C(Nc1cc(C2(c3ccc(Cn4cc(Cl)ccc4=O)cc3)CC2)cnn1)[C@H]1C[C@@H]1c1cccc(Cl)c1` (racemic) [Example 20, rac-(1S*,2S*)—N-(5-(1-(4-((5-chloro-2-oxopyridin-1 (2H)-yl)methyl)phenyl)cyclopropyl)pyridazin-3-yl)-2-(3-chlorophenyl)cyclopropane-1-carboxamide], above 500 nM.
Under `O=C(Nc1cc(Cc2ccc3ncc(C4CC4)cc3c2)ncn1)[C@H]1C[C@@H]1c1cccc(Cl)c1` (racemic) [Example 21, rac-(1S*,2S*)-2-(3-chlorophenyl)-N-(6-((3-cyclopropylquinolin-6-yl)methyl)pyrimidin-4-yl)cyclopropane-1-carboxamide] stands above 500 nM.
The value for `N#Cc1ccc(Cl)cc1[C@H]1C[C@@H]1C(=O)Nc1cc(NCc2nc3ccc(C4CC4)cn3n2)ncn1` (racemic) [Example 24, rac-(1S*,2S*)-2-(5-chloro-2-cyanophenyl)-N-(6-(((6-cyclopropyl-[1,2,4]triazolo[1,5-a]pyridin-2-yl)methyl)amino)pyrimidin-4-yl)cyclopropane-1-carboxamide] was 2.5 to 25 nM; that for `N#Cc1ccc(Cl)cc1[C@H]1C[C@@H]1C(=O)Nc1cc(NCc2nc3ccc(C4CC4)nn3n2)ncn1` (racemic) [Example 27, rac-(1S*,2S*)-2-(5-chloro-2-cyanophenyl)-N-(6-(((6-cyclopropyl-[1,2,4]triazolo[1,5-b]pyridazin-2-yl)methyl)amino)pyrimidin-4-yl)cyclopropane-1-carboxamide] was 2.5 to 25 nM.
As to `N#Cc1ccc(Cl)cc1[C@H]1C[C@@H]1C(=O)Nc1cc(NCc2nc3ccc(C4CC4)cn3n2)ccn1` (racemic) [Example 30, rac-(1S*,2S*)-2-(5-chloro-2-cyanophenyl)-N-(4-(((6-cyclopropyl-[1,2,4]triazolo[1,5-a]pyridin-2-yl)methyl)amino)pyridin-2-yl)cyclopropane-1-carboxamide], the concentration for a half-maximal effect (EC50) was below 2.5 nM.
The value for `Cc1ccnc([C@H]2C[C@@H]2C(=O)Nc2cc(N3C[C@@H](O)C[C@H]3c3ccc(N4CC5CC5C4)nc3)ncn2)n1` (mixture of isomers) [Example 70, rac-(1S*,2S*)—N-(6-((2S*,4S)-2-(6-(3-azabicyclo[3.1.0]hexan-3-yl)pyridin-3yl)-4-hydroxypyrrolidin-1-yl)pyrimidin-4-yl)-2-(4-methylpyrimidin-2-yl)cyclopropane-1-carboxamide] was above 500 nM; that for `Cc1ccnc([C@H]2C[C@@H]2C(=O)Nc2cc(NCc3nc4ncc(C5CC5)cn4n3)ncn2)n1` (racemic) [Example 78, rac-(1S*,2S*)—N-(6-(((6-cyclopropyl-[1,2,4]triazolo[1,5-a]pyrimidin-2-yl)methyl)amino)pyrimidin-4-yl)-2-(4-methylpyrimidin-2-yl)cyclopropane-1-carboxamide] was 2.5 to 25 nM.
As for `CC(Oc1cnnc(NC(=O)[C@H]2C[C@@H]2c2cccc(Cl)c2)c1)c1ccc(Cn2cccn2)cc1` (relative stereo) [Example 3, rac-(1S*,2S*)-N-(5-(1-(4-((1H-pyrazol-1-yl)methyl)phenyl)ethoxy)pyridazin-3-yl)-2-(3-chlorophenyl)cyclopropane-1-carboxamide], the EC50 lay in the range of 2.5 to 25 nM.
Consider `Cc1ccnc([C@H]2C[C@@H]2C(=O)Nc2cc(N3C[C@@H](O)CC3c3ccc(N4CC5CC5C4)nc3)ncn2)n1` (relative stereo) [Example 69, rac-(1S*,2S*)—N-(6-((4S)-2-(6-(3-azabicyclo[3.1.0]hexan-3-yl)pyrin-3-yl)-4-hydroxypyrrolidin-1-yl)pyrimidin-4-yl)-2-(4-methylpyrimidin-2-yl)cyclopropane-1-carboxamide], for which the EC50 fell in the range of 2.5 to 25 nM.
Under `Cc1ccnc([C@H]2C[C@@H]2C(=O)Nc2cc(N3C[C@@H](O)C[C@@H]3c3cn4cc(C5CC5)cnc4n3)ncn2)c1F` (relative stereo) [Example 76, rac-(1S*,2S*)—N-(6-((2R,4S)-2-(6-cyclopropylimidazo[1,2-a]pyrimidin-2-yl)-4-hydroxypyrrolidin-1-yl)pyrimidin-4-yl)-2-(3-fluoro-4-methylpyridin-2-yl)cyclopropane-1-carboxamide] stands 25 to 500 nM.

What is called EC50 is the concentration giving half of the maximal effect.
